US20090143279A1 (priority 2007, published 2009)
Read-outs that look alike come from different tables or passages of the source.

Experiments:
[1] = system: mitochondrial membrane potential; format: cell-based, mouse
[2] = system: cellular dehydrogenase activity
OXPHOS gene expression = format: cell-based, mouse
mtOXPHOS transcripts = format: cell-based, mouse
nuOXPHOS transcripts = format: cell-based, mouse
cytochrome c = format: cell-based, mouse
reactive oxygen species = format: cell-based, mouse
[3] = composite Z-score vs DMSO, Conc 20 μM
[4] = normalized composite Z-score vs mock-treated (DMSO) wells, Conc 20 μM
[5] = 20 μM, composite Z-score vs DMSO
[6] = composite Z-score vs DMSO, Conc 9.58 μM
[7] = composite Z-score vs mock-treated (DMSO) wells, concentration of each compound in μM
[8] = composite Z-score vs DMSO wells, Conc 20 μM
[9] = Conc 20 μM, normalized score vs mock-treated (DMSO) wells
[10] = composite Z-score vs mock-treated (DMSO) wells, Conc 20 μM

COC(=O)c1c(C)cc(O)cc1O [methyl orsellinate]
ΔΨm [1, 3]: −0.632 | Viability (C2C12 myotubes; [3]): −0.008 | MTT [2, 3]: 0.148 | GE-HTS (OXPHOS gene expression; [3]): −1.129 | mitoOX (mtOXPHOS transcripts; [3]): −1.146 | nucOX (nuOXPHOS transcripts; [3]): −1.000 | cyt c (cytochrome c; [3]): 0.573 | ROS (reactive oxygen species; [3]): 1.212

COP(=S)(OC)Oc1ccc([N+](=O)[O-])cc1 [methyl parathione]
ΔΨm [1]: −0.353 | Viability (C2C12 myotubes): 1.967 | MTT [2]: −0.341 | GE-HTS (OXPHOS gene expression): 0.500 | mitoOX (mtOXPHOS transcripts): 0.450 | nucOX (nuOXPHOS transcripts): 0.500 | cyt c (cytochrome c): 0.414 | ROS (reactive oxygen species): 0.218

COc1c2c(cc3occ(-c4ccc5c(c4)OCO5)c(=O)c13)OC(C)(C)C=C2 [methyl robustone, reference compound]
ΔΨm [1, 4]: 0.715 | Viability (C2C12 myotubes; [4]): 0.848 | MTT [2, 4]: −0.344 | GE-HTS (OXPHOS gene expression; [4]): 0.033 | mitoOX (mtOXPHOS transcripts; [4]): −0.063 | nucOX (nuOXPHOS transcripts; [4]): 0.075 | cyt c (cytochrome c; [4]): 0.373 | ROS (reactive oxygen species; [4]): −0.347

C[C@H]1C[C@@H]2[C@H]([C@@H](O)C[C@@]3(C)[C@H]2CC[C@]3(O)C(=O)CO)[C@@]2(C)C=CC(=O)C=C12 [methylprednisolone]
ΔΨm [1]: −0.375 | Viability (C2C12 myotubes): −0.631 | MTT [2]: −1.014 | GE-HTS (OXPHOS gene expression): −0.220 | mitoOX (mtOXPHOS transcripts): −0.270 | nucOX (nuOXPHOS transcripts): −0.138 | cyt c (cytochrome c): −0.102 | ROS (reactive oxygen species): 0.133

Cc1cc(=O)[nH]c(=S)[nH]1 [methylthiouracil]
ΔΨm [1, 5]: −0.553 | Viability (C2C12 myotubes; [5]): −0.235 | MTT [2, 5]: −0.633 | GE-HTS (OXPHOS gene expression; [5]): −0.029 | mitoOX (mtOXPHOS transcripts; [5]): −0.302 | nucOX (nuOXPHOS transcripts; [5]): 0.146 | cyt c (cytochrome c; [5]): 0.846 | ROS (reactive oxygen species; [5]): 0.815

CN1CCCC(CC2c3ccccc3Sc3ccccc32)C1 (stereo not drawn) [metixene]
ΔΨm [1]: −0.713 | Viability (C2C12 myotubes): 1.221 | MTT [2]: −0.786 | GE-HTS (OXPHOS gene expression): −1.190 | mitoOX (mtOXPHOS transcripts): −1.236 | nucOX (nuOXPHOS transcripts): −1.058 | cyt c (cytochrome c): 0.097 | ROS (reactive oxygen species): −0.834

COCCc1ccc(OCC(O)CNC(C)C)cc1 (stereo not drawn) [metoprolol, reference compound]
ΔΨm [1, 6]: −0.997 | ΔΨm [1, 3]: −0.515 | Viability (C2C12 myotubes; [6]): 0.437 | Viability (C2C12 myotubes; [3]): 0.326 | MTT [2, 6]: −1.894 | MTT [2, 3]: −1.660 | GE-HTS (OXPHOS gene expression; [6]): −0.423 | GE-HTS (OXPHOS gene expression; [3]): 0.450 | mitoOX (mtOXPHOS transcripts; [6]): −0.342 | mitoOX (mtOXPHOS transcripts; [3]): 0.241 | nucOX (nuOXPHOS transcripts; [6]): −0.430 | nucOX (nuOXPHOS transcripts; [3]): 0.546 | cyt c (cytochrome c; [6]): 0.496 | cyt c (cytochrome c; [3]): 0.596 | ROS (reactive oxygen species; [6]): 0.253 | ROS (reactive oxygen species; [3]): 0.652

COc1cc2occ(-c3cc4c(cc3OC)OCO4)c(=O)c2cc1OC [milldurone]
ΔΨm [1, 7]: −0.569 | Viability (C2C12 myotubes; [7]): −0.401 | MTT [2, 7]: −0.713 | GE-HTS (OXPHOS gene expression; [7]): 0.343 | mitoOX (mtOXPHOS transcripts; [7]): −0.215 | nucOX (nuOXPHOS transcripts; [7]): 0.605 | cyt c (cytochrome c; [7]): 0.465 | ROS (reactive oxygen species; [7]): 0.680

Clc1ccc(C(c2ccccc2Cl)C(Cl)Cl)cc1 (stereo not drawn) [mitotane]
ΔΨm [1, 5]: −0.542 | Viability (C2C12 myotubes; [5]): −1.631 | MTT [2, 5]: −1.708 | GE-HTS (OXPHOS gene expression; [5]): −0.030 | mitoOX (mtOXPHOS transcripts; [5]): −0.244 | nucOX (nuOXPHOS transcripts; [5]): 0.072 | cyt c (cytochrome c; [5]): −0.216 | ROS (reactive oxygen species; [5]): 0.460

CCOC(=O)[N-]c1cn(N2CCOCC2)n[o+]1 [molsidomine]
ΔΨm [1, 8]: −0.537 | Viability (C2C12 myotubes; [8]): −0.665 | MTT [2, 8]: −0.651 | GE-HTS (OXPHOS gene expression; [8]): 0.250 | mitoOX (mtOXPHOS transcripts; [8]): 0.106 | nucOX (nuOXPHOS transcripts; [8]): 0.331 | cyt c (cytochrome c): −0.533 | cyt c (cytochrome c; [8]): 0.339 | ROS (reactive oxygen species; [8]): −0.398

COc1ccc([C@H]2COc3cc(O)ccc3C2)c(OC)c1O [mucronulatol]
ΔΨm (composite Z-score) [1, 9]: 0.006 | Viability (composite Z-score) (C2C12 myotubes; [9]): 1.396 | MTT (composite Z-score) [2, 9]: −0.847 | GE-HTS (composite Z-score) (OXPHOS gene expression; [9]): −0.345 | mitoOX (composite Z-score) (mtOXPHOS transcripts; [9]): −0.729 | nucOX (composite Z-score) (nuOXPHOS transcripts; [9]): −0.104 | cyt c (composite Z-score) (cytochrome c; [9]): −0.365 | ROS (composite Z-score) (reactive oxygen species; [9]): −0.187

COc1ccc2c(c1)O[C@@H]1COc3cc(OC)c(OC)cc3[C@@H]1C2=O [mundoserone, reference compound]
ΔΨm [1, 10]: 0.837 | Viability (C2C12 myotubes; [10]): −0.425 | MTT [2, 10]: −1.681 | GE-HTS (OXPHOS gene expression; [10]): −0.606 | mitoOX (mtOXPHOS transcripts; [10]): −0.452 | nucOX (nuOXPHOS transcripts; [10]): −0.643 | cyt c (cytochrome c; [10]): 0.418 | ROS (reactive oxygen species; [10]): −0.608
